Assay results published in patent US12583870B2, “Azaheteroaryl compound and application thereof” (SHANGHAI BLUERAY BIOPHARMA CO., LTD., priority 2019, dated 2026).

How the values were obtained:
KARPAS-422 cells = assay: Cell proliferation analysis, KARPAS-422, 13 days, CellTiter-Glo; assay type: cell-based; details: Homo sapiens, 312 h
How it was run: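 KARPAS-422 cells were treated with PRC2 inhibitors over 9 three-fold dilutions from 10 μM top (0.5% DMSO, duplicates) in RPMI-1640 with 15% FBS at 37 °C. Every 3–4 days cells were counted and reseeded at 1×10^4/well with fresh compound. Viability was read by CellTiter-Glo luminescence on day 13.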

[1] = test system: trimethylation level of histone H3K27 in G401 cells; assay: ELISA (H3K27 trimethylation) analysis in G401 cells; assay type: cell-based; details: Homo sapiens, G-401, 72 hours, H3K27me3 standardized to H3
How it was run: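 Cells exposed 72 h to 10-point 3-fold dilutions, top 10 μM, 0.5% final DMSO. Acid-extracted histones assayed by ELISA (ECL) for H3K27me3, normalized to total H3 and to DMSO control; IC50 from dose-response fit.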

[2] = biological target: T1, EED protein (His6-tagged full-length) binding to H3K27me3 polypeptide (Homo sapiens, UniProt O75530); assay: AlphaScreen evaluation of blocking the binding of EED to H3K27Me3; details: EED 60 nM, biotinylated H3K27me3 75 nM, 30 minutes incubation
T1 construct: His6-tagged full-length EED protein (441 amino acids)
Description: Firstly, compound solutions of different concentration gradients were prepared. Compound powder was dissolved in DMSO to prepare a mother liquor. 1.5 μl of the mother liquor of the compound was taken and added into 198.5 μl of a reaction buffer (25 mM HEPES (pH 8.0), 50 mM NaCl, 0.015% Tween 20, 0.5% BSA). The mixture was mixed uniformly. Then a 3-fold series dilution was carried out with the above-mentioned buffer containing 0.75% DMSO. 9 different test concentrations were provided for one same compound. 5 μL of compounds of different concentration gradients were taken and added into the ProxiPlate-384 Plus, White detection plate (PerkinElmer, 6008280) and two replicates in parallel were provided for each concentration gradient.
Secondly, a reaction for blocking the binding was carried out. The above-mentioned buffer was used to dilute His6-tagged full-length EED protein (441 amino acids) to 60 nM and biotinylated polypeptide fragment H3K27me3 (amino acids at positions 19-33) (Biotinylated-H3K27me3) to 75 nM. 5 μl of the polypeptide fragment at the concentration of 75 nM and 5 µl of the protein at the concentration of 60 nM were transferred to the detection wells containing the compound, respectively. The detection plate was sealed with the film and incubation was carried out at room temperature for 30 minutes.
Finally, the detection was carried out with the AlphaScreen method. Prior use, nickel chelate receptor beads and streptavidin donor beads (at the ratio of 1:1, Perkin Elmer, product number 6760619M) were mixed with the above-mentioned reaction buffer. Then 5 μl of the above-mentioned pre-mixed detection solution was added to each of the detection wells. The donor beads and receptor beads were both at a final concentration of 5 μg/mL. The detection plate was covered and sealed with tinfoil and placed in the dark at room temperature for 1 hour. The signal was read using the AlphaScreen detector on the Spectra max i3. AlphaScreen signals were standardlized based on the readings obtained from positive controls (maximum signal controls) and negative controls (minimum signal controls) to give the inhibition rates for compounds at different concentrations, and afterwards non-linear regression analysis was carried out using GraphPad Prism 5, inhibition curves were made based on the Dose-Response equation of Y=Bottom+(Top−Bottom)/(1+10^((Log IC50−X)*HillSlope)) and the IC50 values of each compound were obtained. […]

T1 sequence (O75530 whole entry): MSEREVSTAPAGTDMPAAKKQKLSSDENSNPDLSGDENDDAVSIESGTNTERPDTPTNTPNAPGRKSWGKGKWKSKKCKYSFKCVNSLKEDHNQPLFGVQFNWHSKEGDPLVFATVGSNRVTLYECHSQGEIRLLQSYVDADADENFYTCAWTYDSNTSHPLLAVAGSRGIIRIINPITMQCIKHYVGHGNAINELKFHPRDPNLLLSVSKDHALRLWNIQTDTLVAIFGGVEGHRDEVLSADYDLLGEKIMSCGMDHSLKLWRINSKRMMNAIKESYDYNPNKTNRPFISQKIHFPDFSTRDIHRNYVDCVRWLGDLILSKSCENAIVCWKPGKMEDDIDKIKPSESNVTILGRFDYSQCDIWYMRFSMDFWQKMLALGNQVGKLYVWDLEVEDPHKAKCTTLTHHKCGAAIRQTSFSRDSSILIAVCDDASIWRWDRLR

SMILES: Fc1ccc2c(c1CNc1ncc(-c3ccn4ncnc4c3)c3nncn13)[C@H]1C[C@H]1O2 [8-([1,2,4]triazolo[1,5-a]pyridin-7-yl)-N-(((1aR,6bR)-5-fluoro-1a,6b-dihydro-1H-cyclopropa[b]benzofuran-6-yl)methyl)-[1,2,4]triazolo[4,3-c]pyrimidin-5-amine]
- IC50 (KARPAS-422 cells): 0.0077 µM
- IC50 [1]: 0.0073 µM
- IC50 [2]: 0.0045 µM

SMILES: O=S1(=O)C=Cc2c(-c3cnc(NCc4c(F)ccc5c4CCO5)n4cnnc34)cccc21 [4-(5-(((5-fluoro-2,3-dihydrobenzofuran-4-yl)methyl)amino)-[1,2,4]triazolo[4,3-c]pyrimidin-8-yl)benzo[b]thiophene 1,1-dioxide]
- IC50 (KARPAS-422 cells): 0.013 µM
- IC50 [1]: 0.021 µM
- IC50 [2]: 0.01 µM

SMILES: Cc1ccc(-c2cnc(NCc3c(F)ccc4c3CCO4)n3cnnc23)c2nc(CO)cn12 [(8-(5-(((5-fluoro-2,3-dihydrobenzofuran-4-yl)methyl)amino)-[1,2,4]triazolo[4,3-c]pyrimidin-8-yl)-5-methylimidazo[1,2-a]pyridin-2-yl)methanol]
- IC50 (KARPAS-422 cells): 0.0033 µM
- IC50 [1]: 0.0014 µM
- IC50 [2]: 0.0083 µM

SMILES: O=S1(=O)C=Cc2c(-c3cnc(NCc4c(F)ccc5c4[C@H]4C[C@H]4O5)n4cnnc34)cccc21 [4-(5-((((1aR,6bR)-5-fluoro-1a,6b-dihydro-1H-cyclopropa[b]benzofuran-6-yl)methyl)amino)-[1,2,4]triazolo[4,3-c]pyrimidin-8-yl)benzo[b]thiophene 1,1-dioxide]
- IC50 (KARPAS-422 cells): 0.0115 µM
- IC50 [1]: 0.0092 µM
- IC50 [2]: 0.0044 µM

SMILES: CCOC(=O)c1cnc2c(-c3cnc(NCc4c(F)ccc5c4CCO5)n4cnnc34)cccn12 [Ethyl 8-(5-(((5-fluoro-2,3-dihydrobenzofuran-4-yl)methyl)amino)-[1,2,4]triazolo[4,3-c]pyrimidin-8-yl)imidazo[1,2-a]pyridine-3-carboxylate]
- IC50 (KARPAS-422 cells): 0.004 µM
- IC50 [1]: 0.006 µM
- IC50 [2]: 0.0023 µM

SMILES: CCc1cnc2c(-c3cnc(NCc4c(F)ccc5c4CCO5)n4cnnc34)ccc(C)n12 [8-(3-ethyl-5-methylimidazo[1,2-a]pyridin-8-yl)-N-((5-fluoro-2,3-dihydrobenzofuran-4-yl)methyl)-[1,2,4]triazolo[4,3-c]pyrimidin-5-amine]
- IC50 (KARPAS-422 cells): 0.0022 µM
- IC50 [1]: 0.0025 µM
- IC50 [2]: 0.003 µM

SMILES: Fc1ccc2c(c1CNc1ncc(-c3cccn4ncnc34)c3nncn13)[C@H]1C[C@H]1O2 [8-([1,2,4]triazolo[1,5-a]pyridin-8-yl)-N-(((1aR,6bR)-5-fluoro-1a,6b-dihydro-1H-cyclopropa[b]benzofuran-6-yl)methyl)-[1,2,4]triazolo[4,3-c]pyrimidin-5-amine]
- IC50 (KARPAS-422 cells): 0.0019 µM
- IC50 [1]: 0.0007 µM
- IC50 [2]: 0.004 µM

SMILES: Fc1ccc2c(c1CNc1ncc(-c3cccn4ccnc34)c3nncn13)CCO2 [N-((5-fluoro-2,3-dihydrobenzofuran-4-yl)methyl)-8-(imidazo[1,2-a]pyridin-8-yl)-[1,2,4]triazolo[4,3-c]pyrimidin-5-amine]
- IC50 (KARPAS-422 cells): 0.0015 µM
- IC50 [1]: 0.0008 µM
- IC50 [2]: 0.0044 µM

SMILES: Cn1cnc2c(-c3cnc(NCc4c(F)ccc5c4CCO5)n4cnnc34)cccc21 [N-((5-fluoro-2,3-dihydrobenzofuran-4-yl)methyl)-8-(1-methyl-1H-benzo[d]imidazol-4-yl)-[1,2,4]triazolo[4,3-c]pyrimidin-5-amine]
- IC50 (KARPAS-422 cells): 0.0016 µM
- IC50 [1]: 0.0013 µM
- IC50 [2]: 0.0086 µM

SMILES: CC(=O)c1c(C)nc2c(-c3cnc(NCc4c(F)ccc5c4CCO5)n4cnnc34)cc(F)cn12 [1-(6-fluoro-8-(5-(((5-fluoro-2,3-dihydrobenzofuran-4-yl)methyl)amino)-[1,2,4]triazolo[4,3-c]pyrimidin-8-yl)-2-methylimidazo[1,2-a]pyridin-3-yl)ethan-1-one]
- IC50 (KARPAS-422 cells): 0.0011 µM
- IC50 [1]: 0.0015 µM
- IC50 [2]: 0.016 µM

SMILES: O=S1(=O)C=C(F)c2cc(-c3cnc(NCc4c(F)ccc5c4[C@H]4C[C@H]4O5)n4cnnc34)ccc21 [3-fluoro-5-(5-((((1aR,6bR)-5-fluoro-1a,6b-dihydro-1H-cyclopropa[b]benzofuran-6-yl)methyl)amino)-[1,2,4]triazolo[4,3-c]pyrimidin-8-yl)benzo[b]thiophene 1,1-dioxide]
- IC50 (KARPAS-422 cells): 0.097 µM
- IC50 [1]: 0.078 µM
- IC50 [2]: 0.123 µM

SMILES: Fc1ccc2c(c1CNc1ncc(-c3ccc4nncn4c3)c3nncn13)[C@H]1C[C@H]1O2 [8-([1,2,4]triazolo[4,3-a]pyridin-6-yl)-N-(((1aR,6bR)-5-fluoro-1a,6b-dihydro-1H-cyclopropa[b]benzofuran-6-yl)methyl)-[1,2,4]triazolo[4,3-c]pyrimidin-5-amine]
- IC50 (KARPAS-422 cells): 0.0431 µM
- IC50 [1]: 0.0064 µM
- IC50 [2]: 0.0042 µM

SMILES: Fc1ccc2c(c1CNc1ncc(-c3ccc4nccn4c3)c3nncn13)CCO2 [N-((5-fluoro-2,3-dihydrobenzofuran-4-yl)methyl)-8-(imidazo[1,2-a]pyridin-6-yl)-[1,2,4]triazolo[4,3-c]pyrimidin-5-amine]
- IC50 (KARPAS-422 cells): 0.0941 µM
- IC50 [1]: 0.058 µM
- IC50 [2]: 0.0424 µM

SMILES: Fc1ccc2c(c1CNc1ncc(-c3cnn4cccnc34)c3nncn13)CCO2 [N-((5-fluoro-2,3-dihydrobenzofuran-4-yl)methyl)-8-(pyrazolo[1,5-a]pyrimidin-3-yl)-[1,2,4]triazolo[4,3-c]pyrimidin-5-amine]
- IC50 (KARPAS-422 cells): 0.0097 µM
- IC50 [1]: 0.0104 µM
- IC50 [2]: 0.0021 µM

SMILES: Cc1ccc(-c2cnc(NCc3c(F)ccc4c3CCO4)n3cnnc23)c2nccn12 [N-((5-fluoro-2,3-dihydrobenzofuran-4-yl)methyl)-8-(5-methylimidazo[1,2-a]pyridin-8-yl)-[1,2,4]triazolo[4,3-c]pyrimidin-5-amine]
- IC50 (KARPAS-422 cells): 0.0013 µM
- IC50 [1]: 0.0013 µM
- IC50 [2]: 0.0058 µM

SMILES: Fc1cc(-c2cnc(NCc3c(F)ccc4c3CCO4)n3cnnc23)c2nccn2c1 [N-((5-fluoro-2,3-dihydrobenzofuran-4-yl)methyl)-8-(6-fluoroimidazo[1,2-a]pyridin-8-yl)-[1,2,4]triazolo[4,3-c]pyrimidin-5-amine]
- IC50 (KARPAS-422 cells): 0.002 µM
- IC50 [1]: 0.0029 µM
- IC50 [2]: 0.0049 µM

SMILES: Fc1ccc2c(c1CNc1ncc(-c3ccc4ccnn4c3)c3nncn13)CCO2 [N-((5-fluoro-2,3-dihydrobenzofuran-4-yl)methyl)-8-(pyrazolo[1,5-a]pyridin-6-yl)-[1,2,4]triazolo[4,3-c]pyrimidin-5-amine]
- IC50 (KARPAS-422 cells): 0.0154 µM
- IC50 [1]: 0.0061 µM
- IC50 [2]: 0.0043 µM

SMILES: CC1=C(F)S(=O)(=O)c2ccc(-c3cnc(NCc4c(F)ccc5c4[C@H]4C[C@H]4O5)n4cnnc34)cc21 [2-fluoro-5-(5-((((1aR,6bR)-5-fluoro-1a,6b-dihydro-1H-cyclopropa[b]benzofuran-6-yl)methyl)amino)-[1,2,4]triazolo[4,3-c]pyrimidin-8-yl)-3-methylbenzo[b]thiophene 1,1-dioxide]
- IC50 (KARPAS-422 cells): 0.032 µM
- IC50 [1]: 0.022 µM
- IC50 [2]: 0.0041 µM

SMILES: N#Cc1cnc2c(-c3cnc(NCc4c(F)ccc5c4CCO5)n4cnnc34)cccn12 [8-(5-(((5-fluoro-2,3-dihydrobenzofuran-4-yl)methyl)amino)-[1,2,4]triazolo[4,3-c]pyrimidin-8-yl)imidazo[1,2-a]pyridine-3-carbonitrile]
- IC50 (KARPAS-422 cells): 0.0035 µM
- IC50 [1]: 0.0032 µM
- IC50 [2]: 0.0047 µM

SMILES: CC(=O)OCCc1cnc2c(-c3cnc(NCc4c(F)ccc5c4CCO5)n4cnnc34)ccc(C)n12 [2-(8-(5-(((5-fluoro-2,3-dihydrobenzofuran-4-yl)methyl)amino)-[1,2,4]triazolo[4,3-c]pyrimidin-8-yl)-5-methylimidazo[1,2-a]pyridin-3-yl)ethyl acetate]
- IC50 (KARPAS-422 cells): 0.0017 µM
- IC50 [1]: 0.001 µM
- IC50 [2]: 0.0062 µM

SMILES: Cc1ccc(-c2cnc(NCc3c(F)ccc4c3CCO4)n3cnnc23)c2ncc(CC(N)=O)n12 [2-(8-(5-(((5-fluoro-2,3-dihydrobenzofuran-4-yl)methyl)amino)-[1,2,4]triazolo[4,3-c]pyrimidin-8-yl)-5-methylimidazo[1,2-a]pyridin-3-yl)acetamide]
- IC50 (KARPAS-422 cells): 0.0032 µM
- IC50 [1]: 0.003 µM
- IC50 [2]: 0.0118 µM
